Data taken from patent publication US12496302B2, “Compositions and methods for the treatment and diagnosis of cancer” (The General Hospital Corporation, priority 2020, dated 2025).
“Also recorded” adds a separate entry of the source.

Assays:
Type in all cases: cell-based
[1] = target: T1, TRDMT1 (Homo sapiens, UniProt O14717); test: m^5C staining at TA-KR DNA damage sites in cells treated with YW-1842
T1 construct: SCE WT cells were transfected with TA-KR and were cultured with 2.5 μM/L, compound YW-1842 or not for 6 hours; endogenous in cells; host or cells: SCE WT cells (U2OS-TRE type) transfected with TA-KR only
T1 sequence (O14717 1-391): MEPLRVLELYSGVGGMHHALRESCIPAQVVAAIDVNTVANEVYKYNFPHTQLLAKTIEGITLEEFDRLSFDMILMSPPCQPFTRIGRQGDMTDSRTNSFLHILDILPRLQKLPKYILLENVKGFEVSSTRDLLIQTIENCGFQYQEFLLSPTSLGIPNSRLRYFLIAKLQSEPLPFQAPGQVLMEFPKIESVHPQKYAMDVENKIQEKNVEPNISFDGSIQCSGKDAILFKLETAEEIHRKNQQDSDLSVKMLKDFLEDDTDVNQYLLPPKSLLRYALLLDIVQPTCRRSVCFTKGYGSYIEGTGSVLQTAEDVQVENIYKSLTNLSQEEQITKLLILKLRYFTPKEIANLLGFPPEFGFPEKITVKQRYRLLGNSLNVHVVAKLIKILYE
Experimental: (§1) FIGS. 6A-6E show TRDMT1 Inhibitors specifically sensitizes cells to DNA damage agents. (FIG. 6A) SCE WT cells were transfected with TA-KR and were cultured with 2.5 μM/L, compound YW-1842 or not for 6 hours, m^5C (n=3, 50 cells per replicated, Mean±SD) was stained and quantified. DR-GFP (FIG. 6B) or EJ5-GFP (FIG. 6C) cells were pre-treated with 2.5 μM/L, compound YW-1842 for 6 h or TRDMT1 siRNA for 48 h, or DMSO. Then the cells were transfected with NLS-I-SceI plasmid to induce DSB. The efficiency of HR (FIG. 6B) or NHEJ (FIG. 6C) was analyzed by flow-cytometry (n=3, Mean±SD). (FIG. 6D) After seeding, MCF-7, HCC1954, and HCC1937 cells were pre-treated with or without 2.5 μM/L compound YW-1842 for 6 h, then cultured with chemotherapy drugs (1 μM/L, Cisplatin; 1 μM/L ATRi AZ20; 10 μM/L, ATMi KU55933; 1 μM/L, PARPi Olaparib for 10 days. The survival rate of these cells was analyzed (n=3, Mean±SD). (FIG. 6E) TRDMT1 KO U2OS cells were transfected with GFP-TRDMT1^WT or GFP-TRDMT1^G155V with or without 2.5 μM/L, compound YW-1842, the survival rate of these cells after IR or Cisplatin was shown (n=3, Mean±SD).
The Olympus FV1000 confocal microscopy system (Cat. F10PRDMYR-1, Olympus) and FV1000 software were used for the acquisition of images. Cells were cultured in 35 mm glass-bottom dishes (MatTek, P35GC-1.5-14-C) before observation. Activation of KR in bulky cells was completed by exposing cells to a 15 W Sylvania cool white fluorescent bulb for 25 min in a stage UVP (Uvland, CA). The intensity was measured by ImageJ 1.52i software.
For m^5C staining using the heat method, the cells or tissues were fixed and permeabilized in a 35 mm glass-bottom dish using a standard protocol, incubated in buffer (10 mM Tris-HCl, 2 mM EDTA, pH=9) and steamed on a 95° C. heating block for 20 min to expose the antigen. The dish was cooled, washed 3 times with PBS and blocked using 5% BSA in 0.1% PBST for 0.5 h at room temperature. Primary antibody for m^5C (33D3, ab10805, Abcam) and secondary antibody were diluted in the same buffer (5% BSA in 0.1% PBST) and followed the standard IF protocol. […]

[2] = tested on: γ-H2AX foci; test: γ-H2AX foci clearance after damage; conditions: 2.5 μM/L YW-1842
Experimental: FIGS. 6F-6G show TRDMT1 inhibitor YW-1842 delays the repair of DSBs at the transcribed genome. (FIG. 6F) U2OS or MCF7 cells were treated with or without compound YW-1842 at the indicated concentration. The survival rate of these cells was shown (n=3, Mean±SD). (FIG. 6G) SCE WT cells were transfected with TA-KR and were cultured with 2.5 μM YW-1842 or not for 6 hours, γ-H2AX (n=3, 50 cells per replicated, Mean±SD) were stained and quantified.
Cells for immunofluorescence observation were fixed in 4% PFA (Affymetrix, 19943 1 LT) at room temperature for 15 min and further treated with 0.2% triton for 10 min. They were then blocked by 3% BSA (SIGMA, A-7030) at room temperature for 1 h. Primary antibody for RAD51 (ab63801, Abcam, 1:200)), RAD52 (sc-365341, Santa Cruz, CA, USA, 1:500), TRIM28 (ab10484, Abcam, 1:500), γH2AX ser139 (JBW301, 05-636, EMD Millipore, 1:200), were incubated with cells at 4° C. overnight. After washing with 0.05% PBS-Tween (PBST), the cells were incubated with secondary antibody for 1 h at room temperature.

[3] = tested on: TRDMT1 KO U2OS cells; test: Cell survival after IR or Cisplatin in TRDMT1 KO U2OS cells with or without YW-1842; conditions: 2.5 μM/L
Experimental: as §1
Approximately 500 U2OS/TRDMT1 KO U2OS/MCF-7/HCC1954/HCC1937 cells and TRDMT1 siRNA or GFP-TRDMT1 WT/G155V/K251R transfected cells were seeded in 6 cm dish with or without TRDMT1 inhibitors (2.5 μM/L). […]

Question: What does the source list for `COc1cc2nc(-n3cc(-c4ccc(S(C)(=O)=O)cc4)cn3)nc(-c3ccsc3)c2cc1OC` [YW-1842, 6,7-dimethoxy-2-(4-(4-(methylsulfonyl)phenyl)-1H-pyrazol-1-yl)-4-(thiophen-3-yl)quinazoline]?
Answer: TRDMT1 inhibition (overall statement) [1]: potent inhibitor for TRDMT1; also recorded: high inhibitory activity; inhibiting TRDMT1 recruitment, m^5C formation and HR efficiency at DNA damage sites [1]: performed well; m^5C inhibitory activity ([1]; 2.5 μM/L, 6 hours, cells transfected with TA-KR): almost equivalent to TRDMT1 depletion; DNA repair efficiency (clearance of γ-H2AX foci after IR) [2]: delayed clearance of γ-H2AX foci; sensitization of TRDMT1 KO cells to IR or Cisplatin [3]: does not sensitize TRDMT1 KO
